# Measurements from US6900336B2, “8-aza-11-deoxy prostaglandin analogues” (Syntex (U.S.A.) LLC, priority 2001, dated 2005).
# Key:
# [1] = biological target: T1, rEP1 Receptor (UniProt P70597); assay: Competitive Binding Assay of [3H]PGE2 to rEP1 Receptor; settings: 3 nM [3H]PGE2, membrane fraction, 1 hr at 30° C.; read-out: EP1, Ki
# T1 sequence (P70597 1-405): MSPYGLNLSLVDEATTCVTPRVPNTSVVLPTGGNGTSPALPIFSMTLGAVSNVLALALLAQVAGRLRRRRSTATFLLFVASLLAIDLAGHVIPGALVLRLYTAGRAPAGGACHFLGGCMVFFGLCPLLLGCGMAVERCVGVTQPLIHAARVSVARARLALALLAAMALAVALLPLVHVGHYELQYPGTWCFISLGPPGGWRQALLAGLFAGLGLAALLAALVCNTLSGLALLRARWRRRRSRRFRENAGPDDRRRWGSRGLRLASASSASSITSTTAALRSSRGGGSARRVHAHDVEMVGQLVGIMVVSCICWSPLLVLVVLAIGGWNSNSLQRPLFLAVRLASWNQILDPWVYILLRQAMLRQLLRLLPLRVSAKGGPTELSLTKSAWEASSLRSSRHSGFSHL
# Procedure: (§1) Competitive Binding Assay of [^3H]PGE2 to rEP1 or rEP3 Receptor
# (§2) The cells were maintained in culture then harvested upon confluency. The membrane was prepared by two times of centrifugation (12,000× g for 15 min) following lysis of cells by polytron homogenization of 15 sec. in 10 volume of 20 mM Hepes pH 7.4 containing 1 mM EDTA, 10 mM MgCl2, 20 uM indomethacin at 4° C. […] Incubations were conducted for 1 hr at 30° C. prior to separation of the bound and free radioligand by rapid filtration. Residual [^3H]PGE2 bound to the filter was quantitated by liquid scintillation counting. The Ki of a compound was calculated by the program of one site binding calculation of Prism.
# [2] = biological target: T2, EP2 Receptor (Homo sapiens, UniProt P43116); assay: EP2 Ki (table under competitive [3H]PGE2 binding assay)
# T2 construct: host or cells: unnamed cultured cells, membrane fraction
# [3] = biological target: T3, EP4 Receptor (Homo sapiens, UniProt P35408); assay: EP4 Ki (table under competitive [3H]PGE2 binding assay)
# T3 construct: host or cells: unnamed cultured cells, membrane fraction
# Procedure: [Worded in the source for another target; this target is reported under the same test.] as §1, §2
# [4] = biological target: T4, rEP3 Receptor (UniProt P34980); assay: Competitive Binding Assay of [3H]PGE2 to rEP3 Receptor; settings: 3 nM [3H]PGE2, membrane fraction, 1 hr at 30° C.; read-out: EP3, Ki
# T4 sequence (P34980 1-365): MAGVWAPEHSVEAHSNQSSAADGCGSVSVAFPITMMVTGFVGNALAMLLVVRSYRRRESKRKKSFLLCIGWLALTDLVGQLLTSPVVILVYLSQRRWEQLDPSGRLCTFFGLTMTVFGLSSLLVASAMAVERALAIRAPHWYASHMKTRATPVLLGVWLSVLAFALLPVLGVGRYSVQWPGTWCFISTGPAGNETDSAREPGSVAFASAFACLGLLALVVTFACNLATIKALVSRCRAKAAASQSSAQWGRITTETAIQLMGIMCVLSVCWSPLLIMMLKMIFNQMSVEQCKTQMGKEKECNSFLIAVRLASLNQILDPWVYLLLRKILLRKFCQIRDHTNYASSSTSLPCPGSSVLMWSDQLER
# Procedure: as §1
# The cells were maintained in culture then harvested upon confluency. […] Incubations were conducted for 1 hr at 30° C. prior to separation of the bound and free radioligand by rapid filtration. Residual [^3H]PGE2 bound to the filter was quantitated by liquid scintillation counting. The Ki of a compound was calculated by the program of one site binding calculation of Prism.
# T2 sequence (P43116 whole entry): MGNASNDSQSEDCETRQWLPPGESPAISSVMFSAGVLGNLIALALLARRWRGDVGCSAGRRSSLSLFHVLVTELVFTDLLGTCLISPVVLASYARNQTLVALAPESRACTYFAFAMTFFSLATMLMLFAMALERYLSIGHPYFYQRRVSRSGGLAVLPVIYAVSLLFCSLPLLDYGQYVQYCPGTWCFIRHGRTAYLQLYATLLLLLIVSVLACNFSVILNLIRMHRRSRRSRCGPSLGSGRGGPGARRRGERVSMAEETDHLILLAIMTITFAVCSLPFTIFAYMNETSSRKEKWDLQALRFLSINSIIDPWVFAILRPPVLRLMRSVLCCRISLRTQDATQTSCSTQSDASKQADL
# T3 sequence (P35408 whole entry): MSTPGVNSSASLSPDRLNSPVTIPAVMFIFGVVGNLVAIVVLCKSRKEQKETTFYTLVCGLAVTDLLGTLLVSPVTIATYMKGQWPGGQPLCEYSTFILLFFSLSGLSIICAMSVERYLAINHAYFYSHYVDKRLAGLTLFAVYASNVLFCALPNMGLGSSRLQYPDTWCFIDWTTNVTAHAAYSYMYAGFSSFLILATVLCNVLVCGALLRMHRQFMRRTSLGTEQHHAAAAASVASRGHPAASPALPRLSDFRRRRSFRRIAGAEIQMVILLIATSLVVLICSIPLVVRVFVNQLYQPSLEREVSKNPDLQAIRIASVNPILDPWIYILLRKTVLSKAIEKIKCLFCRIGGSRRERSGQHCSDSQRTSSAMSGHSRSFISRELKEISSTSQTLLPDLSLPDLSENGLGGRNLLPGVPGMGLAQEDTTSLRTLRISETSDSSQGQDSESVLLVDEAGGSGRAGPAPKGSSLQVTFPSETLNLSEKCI
SMILES,Ki [1] [µM],Ki [2] [µM],Ki [3] [µM],Ki [4] [µM]
"CC1(C)C[C@H](/C=C/C(O)c2ccc(C(F)(F)F)o2)N(CCCCCCC(=O)O)C1=O (stereo partly drawn) [Compound 55, 7-{(R)-5-[(E)-3-hydroxy-3-(5-trifluoromethyl-furan-2-yl)-propenyl]-3,3-dimethyl-2-oxo-pyrrolidin-1-yl}-heptanoic acid]",> 100,> 100,0.007,> 100
"COCc1cccc(CC(O)/C=C/[C@H]2CC(C)(C)C(=O)N2CCCCCCC(=O)O)c1 (stereo partly drawn) [Compound 59, 7-{(R)-5-[(E)-3-Hydroxy-4-(3-methoxymethyl-phenyl)-but-1-enyl]-3,3-dimethyl-2-oxo-pyrrolidin-1-yl}-heptanoic acid]",,> 100,0.07,> 100
"O=C(O)CCCCCCN1C(=O)CC[C@@H]1/C=C/C(O)c1cccc(Oc2ccc(Cl)cc2)c1 (stereo partly drawn) [Compound 74, 7-((R)-2-{(E)-3-[3-(4-chloro-phenoxy)-phenyl]-3-hydroxy-propenyl}-5-oxo-pyrrolidin-1-yl)-heptanoic acid]",,22.9,0.01,47
"CCCCC[C@H](O)/C=C/[C@H]1CCC(=O)N1CCc1ccc(C(=O)O)cc1 [Compound 76, 4-{2-[(R)-2-((E)-3-Hydroxy-oct-1-enyl)-5-oxo-pyrrolidin-1-yl]-ethyl}-benzoic Acid]",,0.13,0.0012,11
"Cc1cc(Cl)ccc1-c1cccc([C@H](O)CC[C@H]2CCC(=O)N2CCc2ccc(C(=O)O)cc2)c1 [Compound 81, 4-(2-{(S)-2-[(R)-3-(4′-Chloro-2′-methyl-biphenyl-3-yl)-3-hydroxy-propyl]-5-oxo-pyrrolidin-1-yl}-ethyl)-benzoic acid]",,5.1,0.00094,54
CCCCCC(O)/C=C/[C@H]1CCC(=O)N1CCc1ccc(C(=O)O)s1 (stereo partly shown) [Compound 82],,3.7,0.069,> 100
